Columns and labels:
[1] = test system: thoracic aorta (albino rabbit, helical strips, endothelium removed); test: In vitro screening of NO donors: relaxation of endothelium-denuded rabbit thoracic aorta strips, before and after GTN-induced tolerance; format: cell-based; settings: relative to GTN; for Mean Relative Potency After Tolerance: after tolerance induced by 440 μM GTN for 90 min
Protocol: a) In vitro Screening of NO Donors
The method adopted was a modified method of Nishikawa et al (1982). Albino rabbits of either sex were stunned and exsanguinated. Thoracic aorta was quickly removed and cut helically (at an angle of […]) into strips 4-5 mm wide and 25 to 30 mm long, after removal of adventitial connective tissue. The endothelium was rubbed off gently using a cotton swab soaked in Kreb's solution. Two strips were fixed vertically in organ baths containing 20 ml. Kreb's solution maintained at 37° C. and bubbled with oxygen. A resting tension of 4 g was applied and the preparation was allowed to equilibrate for 30 min. Each preparation was exposed to two primer doses of KCl (30 mM). After the contraction reached a maximum, the bath was drained off and replaced with fresh Kreb's solution. Half an hour later, cumulative dose response curve for the test compound was taken on one tissue (test) and for glyceryl trinitrate (GTN) in the other (standard). The dose range used was from 10^-9 M to 10^-3 M with a contact period of 4 min. for each dose.
Tolerance was induced in both the tissues by adding 440 μM of GTN for 90 minutes. During this period the bath solution was changed every 30 min. and 440 μM of GTN was replaced. Later both the tissues were washed thoroughly and the dose response curve (DRC) for both the test and the standard were repeated. The percentage relaxation with individual doses was calculated by taking the maximum relaxations to 10^-4 M papaverine as 100% relaxation. A graph was plotted by taking the percentage relaxation vs the log (M) concentration of the compounds.

[2] = test system: vasopressin induced T-wave elevation; test: Anti-anginal effect: suppression of vasopressin induced T-wave elevation in anesthetized guinea pigs; format: in vivo, guinea pig; settings: for Selectivity Index A/B (C): ED20 for fall in B.P. (A) / ED50 for T-wave inhibition (B); for Dose required for 50% inhibition of T-wave (ED50) (B): i.v.
Text: b) In vivo Pharmacological Screening
A modified method of Benedini et al (1995) was adopted for studying the anti-anginal effect of the chosen compounds. Guinea pigs of either sex, weighing approximately 400-600 g were used for this study. Animals were anesthetized with urethane (1.25 g/kg, i.p.) and jugular vein was cannulated for intravenous administration of drugs/vehicle. Mean arterial blood pressure (MABP) was monitored by a cannula inserted into the right carotid artery and connected to a pressure transducer. Standard limb lead II electrocardiogram was recorded continuously. All the recordings were carried out on a MacLab system (AD Instruments, UK).
The ability of the test compounds to suppress the vasopressin induced T-wave elevation was used as the model for studying the anti-anginal effects of the compounds. Guinea pigs were divided into two groups for the purpose of this study, i) control group (pretreated with the vehicle for the compound) and ii) drug treated group.
In this group of animals the solvent used for dissolving the test compound was administered intravenously in a volume of 1 ml/kg. The basal T-wave heights, heart rates and MABP and changes after vehicle administration were noted. Thirty seconds later 1 I.U./ml/kg of vasopressin was administered intravenously. The T-wave heights, heart rates and MABP and their changes after vasopressin administration were also noted. The T-wave elevation (after vasopressin administration), maximum rise in MABP, and changes in heart rate were calculated from the above data and expressed as mean±standard deviation.
The effects of the test compound in suppressing the T-wave elevation caused by vasopressin were evaluated with atleast three dose levels. Groups of 6 guinea pigs were used for each dose. The test compound was injected 30 seconds prior to vasopressin administration. Changes in MABP, heart rate and T-waves were recorded as described for the control group. The percentage inhibition of vasopressin induced T-wave elevation was calculated for each dose taking the T-wave height estimated in control group as 100%. From the dose vs percent inhibition relationship, the dose required for 50% inhibition (ED50) for the T-wave elevation was estimated.
In a separate group of animals the drop in MABP after administration of the test compound (dose range of 0.1-1000 μg/kg, i.v.) was studied. Atleast three animals were used for each dose. Care was taken so that the doses were given only after the MABP had stabilized from the effects of the previous dose. All doses were injected in a final volume of 1 ml/kg. […] From this graph the dose required to produce a 20% fall in MABP (ED20) was calculated. The specificity of the test compound was defined by the selectivity index, which was shown below: [formula]

MABP = test: Drop in mean arterial blood pressure (MABP) after i.v. administration; format: in vivo, guinea pig; settings: 20% fall in MABP
Protocol: Guinea pigs of either sex, weighing approximately 400-600 g were used for this study. […] Standard limb lead II electrocardiogram was recorded continuously. All the recordings were carried out on a MacLab system (AD Instruments, UK).
Determination of the Ed20 Values for Drop in Mabp
Atleast three animals were used for each dose. […] All doses were injected in a final volume of 1 ml/kg. […] The specificity of the test compound was defined by the selectivity index, which was shown below: [formula]

[3] = conventional nitrates like GTN; cited from earlier work
[4] = 30 seconds prior to vasopressin 1 I.U./ml/kg

With O=C(OCCN1CCOCC1)c1ccc2c(c1)no[n+]2[O-] [Compound 5, 5(6)-(2-morpholinoethyloxycarbonyl)benzofuroxan] the “Mean Relative Potency After Tolerance” value [1] was 4.12 and the “Mean Relative Potency Before Tolerance” value [1] was 0.18.

For O=C(OCC(O)CO)c1ccc2c(c1)no[n+]2[O-] (stereo not drawn) [Compound 7, 5(6)-(2,3-dihydroxypropyloxycarbonyl) benzofuroxan], the “Mean Relative Potency After Tolerance” value [1] was 3.49 and the “Mean Relative Potency Before Tolerance” value [1] was 0.17.

For CC1(C)OCC(COC(=O)c2ccc3c(c2)no[n+]3[O-])O1 (racemic) [Compound 10, 5(6)-((±)-2,2-dimethyl-1,3-dioxolane-4-methyloxycarbonyl) benzofuroxan], the “Mean Relative Potency After Tolerance” value [1] was 10.13, the “Mean Relative Potency Before Tolerance” value [1] was 0.39 and the “Selectivity Index A/B (C)” value [2] was 0.58. The “selectivity index as compared to GTN (in words)” value (shortened to “selectivity index … (in words)”) [2] was “high selectivity index as compared to GTN”, the “Dose required for 50% inhibition of T-wave (ED50) (B)” value (“Dose required for 50% inhibition” below) [2, 4] was 0.492 mg/kg and the “Dose needed for 20% fall in B.P. (ED20) (A)” value (MABP) was 0.286 mg/kg.

For O=C(OC1COC2C(O[N+](=O)[O-])COC12)c1ccc2c(c1)no[n+]2[O-] (stereo not drawn) [Compound 11, 5(6)-(isosorbide mononitrateoxy carbonyl) benzofuroxan], the “Mean Relative Potency After Tolerance” value [1] was 7 and the “Mean Relative Potency Before Tolerance” value [1] was 0.25.

For O=[N+]([O-])OCC(CO[N+](=O)[O-])O[N+](=O)[O-] [GTN, glyceryl trinitrate, reference compound], the ED50 ([2]; Cavia porcellus, iv, 30 seconds prior to vasopressin 1 I.U./ml/kg, read-out: Dose required for 50% inhibition of T-wave (ED50) (B)) was 0.474 mg/kg, the “Selectivity Index A/B (C)” value [2] was roughly 0.017 and the ED20 (MABP; Cavia porcellus, iv, read-out: Dose needed for 20% fall in B.P. (ED20) (A)) was 0.00822 mg/kg. The “side effects as a manifestation of hypotensive effect” value [3] was “tachycardia, retrosternal discomfort, palpitations, collapse, syncope and postural hypotension”.

In the case of “5(6)-(2-nicotinamide ethyloxycarbonyl) benzofuroxan hydrochloride [Compound 1]”, the “Mean Relative Potency After Tolerance” value [1] is reported as 8.4, the “Mean Relative Potency Before Tolerance” value [1] is reported as 0.2 and the “Selectivity Index A/B (C)” value [2] is reported as 0.517. The “selectivity index … (in words)” value [2] was “high selectivity index as compared to GTN”, the “Dose required for 50% inhibition” value [2, 4] was 0.88642 mg/kg and the “Dose needed for 20% fall in B.P. (ED20) (A)” value (MABP) was 0.45802 mg/kg.

In the case of COCCOC(=O)c1ccc2c(c1)no[n+]2[O-] [Compound 6, 5(6)-(2-methyloxyethyloxycarbonyl) benzofuroxan], the “Mean Relative Potency After Tolerance” value [1] is reported as 17.02, the “Mean Relative Potency Before Tolerance” value [1] is reported as 0.97 and the “Selectivity Index A/B (C)” value [2] is reported as 0.67. For the same molecule, the “selectivity index … (in words)” value [2] was “high selectivity index as compared to GTN”, the “Dose required for 50% inhibition” value [2, 4] was 0.3379 mg/kg and the “Dose needed for 20% fall in B.P. (ED20) (A)” value (MABP) was 0.22634 mg/kg.

With CCOCCOC(=O)c1ccc2c(c1)no[n+]2[O-] [Compound 8, 5(6)-(2-ethoxyethyloxycarbonyl) benzofuroxan] the “Mean Relative Potency After Tolerance” value [1] was 11.9 and the “Mean Relative Potency Before Tolerance” value [1] was 0.2.

In the case of O=C(NCCOC(=O)c1ccc2c(c1)no[n+]2[O-])c1ccncc1 [Compound 2, 5(6)-(2-isonicotinamideethyloxycarbonyl)benzofuroxan], the “Mean Relative Potency After Tolerance” value [1] is reported as 6.94 and the “Mean Relative Potency Before Tolerance” value [1] is reported as 0.06.

With O=C(OCCN1CCCC1=O)c1ccc2c(c1)no[n+]2[O-] [Compound 3, 5(6)-(2-pyrolidinone ethyloxycarbonyl) benzofuroxan] the “Mean Relative Potency After Tolerance” value [1] was 25, the “Mean Relative Potency Before Tolerance” value [1] was 0.11 and the “Selectivity Index A/B (C)” value [2] was 0.152. For the same molecule, the “Dose required for 50% inhibition” value [2, 4] was 0.67561 mg/kg and the “Dose needed for 20% fall in B.P. (ED20) (A)” value (MABP) was 0.13952 mg/kg.

With O=C(OCc1cccnc1)c1ccc2c(c1)no[n+]2[O-] [Compound 9, 5(6)-(3-pyridinemethoxycarbonyl) benzofuroxan] the “Mean Relative Potency After Tolerance” value [1] was 8.05, the “Mean Relative Potency Before Tolerance” value [1] was 0.53 and the “Selectivity Index A/B (C)” value [2] was 0.61. For the same molecule, the “selectivity index … (in words)” value [2] was “high selectivity index as compared to GTN”, the “Dose required for 50% inhibition” value [2, 4] was 0.37285 mg/kg and the “Dose needed for 20% fall in B.P. (ED20) (A)” value (MABP) was 0.22716 mg/kg.

For CC(O)COC(=O)c1ccc2c(c1)no[n+]2[O-] (stereo not drawn) [Compound 4, 5(6)-(2-hydroxypropyloxycarbonyl) benzofuroxan], the “Mean Relative Potency After Tolerance” value [1] was 11.22 and the “Mean Relative Potency Before Tolerance” value [1] was 0.28.
